Data taken from patent US6440900B1, “Method for extending the life of cut flowers” (Engelhard Corporation, priority 2001, dated 2002).

What was measured:
[1] = Spectroscopic evaluation of the flower water for chlorine dioxide; assay type: physicochemical; conditions: third day of the tests; uncovered beakers, tap water
Text: As may be seen from the results set forth in Table 1, the roses in the beaker containing no chlorine dioxide had the shortest lifetime. […] Roses with less or more chlorine dioxide had intermediate lifetimes. […] This was not surprising since the beakers were uncovered and chlorine dioxide could readily escape or decompose.

fresh red roses = experiment: Cut flower life test: 5 fresh red roses per beaker of treated tap water, monitored daily for bloom death; assay type: in vivo, rose; conditions: for Average Flower Life: 5 per beaker
Experimental: In the following examples, test were conducted with fresh red roses obtained from a single source. The stems were cut (under water) and, for each experimental test, 5 roses were placed in a beaker. The same person monitored the flowers every day (the criterion for bloom death was that the monitor would have discarded the roses if the roses were in the monitor's home). Thereafter, the average flower life in days was calculated for each experimental condition.
Five beakers of 800 ml tap water containing 0, 2, 5, 10 and 15 ppm chlorine dioxide were used for these tests.
Example 1 was repeated using tap water alone, tap water containing 5 ppm chlorine dioxide, tap water containing “Aquaplus®” and tap water containing 5 ppm chlorine dioxide and “Aquaplus®”. “Aquaplus®” is described as a fresh flower nutrient and water clarifier and was obtained from Syndicate Sales, Kokomo, Ind.

## [O][Cl+][O-] [Chlorine Dioxide, chlorine dioxide]
[1]
  Chlorine dioxide present in the flower water: no chlorine dioxide was present
Fresh red roses; 2 ppm chlorine dioxide in 800 ml tap water
  Average Flower Life: 5.6 days
Fresh red roses; 5 ppm chlorine dioxide
  Change of lifetime of the roses compared to no chlorine dioxide / plain water control: approximately doubled
Fresh red roses; 5 ppm chlorine dioxide in 800 ml tap water
  Average Flower Life: 7.8 days
Fresh red roses; 10 ppm chlorine dioxide in 800 ml tap water
  Average Flower Life: 5.8 days
Fresh red roses; 15 ppm chlorine dioxide in 800 ml tap water
  Average Flower Life: 5.8 days
Fresh red roses; Example 2, tap water containing 5 ppm ClO2
  Flower Lifetime: 7.8 days
